# In patent publication US12077483B2, “Modified amine lipids” (Intellia Therapeutics, Inc., priority 2018, dated 2024):
# How the values were obtained:
# [1] = system: mouse TTR; experiment: Serum TTR ELISA in mice after LNP delivery; format: in vivo; conditions: mouse serum, relative to TSS control of same experiment
# Method in brief: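 Female CD-1 mice received LNP at 0.1 mpk unless noted; serum was collected 6 or 7 days later. Total serum TTR was measured by mouse prealbumin ELISA at 10,000- and/or 2,500-fold dilution and is expressed as a percentage of vehicle control.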
# [2] = pKa of amine lipid by TNS fluorescence; format: physicochemical; conditions: probe TNS (6-(p-toluidino)-2-naphthalenesulfonic acid sodium salt), unformulated amine lipid in ethanol, sodium phosphate buffers -9.0
# Method in brief: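 Unformulated amine lipid, about 100 μM final, in 0.1 M sodium phosphate buffers spanning pH 4.5–9.0 with TNS. Fluorescence read at ex 321/em 448 nm; normalized data fitted sigmoidally to give pKa.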
# [3] = LNP average particle size and polydispersity by dynamic light scattering; format: physicochemical; conditions: LNP with the compound as amine lipid
# Excerpt: The LNPs have a size of about 1 to about 1,000 nm, about 10 to about 500 nm, about 20 to about 500 nm, in a sub-embodiment about 50 to about 400 nm, in a sub-embodiment about 50 to about 300 nm, in a sub-embodiment about 50 to about 200 nm, and in a sub-embodiment about 50 to about 150 nm, and in another sub-embodiment about 60 to about 120 nm. Preferably, the LNPs have a size from about 60 nm to about 100 nm. The average sizes (diameters) of the fully formed LNP, may be measured by dynamic light scattering on a Malvern Zetasizer. The LNP sample is diluted in phosphate buffered saline (PBS) so that the count rate is approximately 200-400 kcps. The data is presented as a weighted average of the intensity measure.
# In some embodiments, the LNPs have a size of about 75 to about 120 nm. In some embodiments, the LNPs have a size of about 75 to about 100 nm. Unless indicated otherwise, all sizes referred to herein are the average sizes (diameters) of the fully formed nanoparticles, as measured by dynamic light scattering on a Malvern Zetasizer. The nanoparticle sample is diluted in phosphate buffered saline (PBS) so that the count rate is approximately 200-400 kcps. The data is presented as a weighted-average of the intensity measure (Z-average diameter).
# Dynamic Light Scattering (“DLS”) is used to characterize the polydispersity index (“pdi”) and size of the LNPs of the present disclosure. DLS measures the scattering of light that results from subjecting a sample to a light source. PDI, as determined from DLS measurements, represents the distribution of particle size (around the mean particle size) in a population, with a perfectly uniform population having a PDI of zero. Electropheretic light scattering is used to characterize the surface charge of the LNP at a specified pH. The surface charge, or the zeta potential, is a measure of the magnitude of electrostatic repulsion/attraction between particles in the LNP suspension. Asymmetric-Flow Field Flow Fractionation—Multi-Angle Light Scattering (AF4-MALS) is used to separate particles in the composition by hydrodynamic radius and then measure the molecular weights, hydrodynamic radii and root mean square radii of the fractionated particles. […] Nanoparticle tracking analysis (NTA, Malvern Nanosight) can be used to determine particle size distribution as well as particle concentration. LNP samples are diluted appropriately and injected onto a microscope slide. A camera records the scattered light as the particles are slowly infused through field of view. After the movie is captured, the Nanoparticle Tracking Analysis processes the movie by tracking pixels and calculating a diffusion coefficient. This diffusion coefficient can be translated into the hydrodynamic radius of the particle. The instrument also counts the number of individual particles counted in the analysis to give particle concentration.
# LNP compositions are analyzed for average particle size, polydispersity index (pdi), total RNA content, encapsulation efficiency of RNA, and zeta potential. LNP compositions may be further characterized by lipid analysis, AF4-MALS, NTA, and/or cryo-EM. Average particle size and polydispersity are measured by dynamic light scattering (DLS) using a Malvern Zetasizer DLS instrument. LNP samples were diluted with PBS buffer prior to being measured by DLS. Z-average diameter which is an intensity-based measurement of average particle size was reported along with number average diameter and pdi. A Malvern Zetasizer instrument is also used to measure the zeta potential of the LNP. Samples are diluted 1:17 (50 μL into 800 μL) in 0.1×PBS, pH 7.4 prior to measurement.
# [4] = RNA encapsulation efficiency of LNP (Ribogreen fluorescence assay); format: physicochemical; conditions: LNP with the compound as amine lipid
# Method: A fluorescence-based assay (Ribogreen®, ThermoFisher Scientific) is used to determine total RNA concentration and free RNA. Encapsulation efficiency is calculated as (Total RNA—Free RNA)/Total RNA. LNP samples are diluted appropriately with 1× TE buffer containing 0.2% Triton-X 100 to determine total RNA or 1× TE buffer to determine free RNA. Standard curves are prepared by utilizing the starting RNA solution used to make the compositions and diluted in 1× TE buffer+/−0.2% Triton-X 100. Diluted RiboGreen® dye (according to the manufacturer's instructions) is then added to each of the standards and samples and allowed to incubate for approximately 10 minutes at room temperature, in the absence of light. A SpectraMax M5 Microplate Reader (Molecular Devices) is used to read the samples with excitation, auto cutoff and emission wavelengths set to 488 nm, 515 nm, and 525 nm respectively. Total RNA and free RNA are determined from the appropriate standard curves.
# Encapsulation efficiency is calculated as (Total RNA−Free RNA)/Total RNA. The same procedure may be used for determining the encapsulation efficiency of a DNA-based cargo component. For single-strand DNA, Oligreen Dye may be used and for double-strand DNA, Picogreen Dye.
# [5] = Expt. 4, composition ratio (mol %) 50/9/38/3 for Cmpnd 49, 50/10/38.5/1.5 for the others
# [6] = Expt. 9, composition ratio (mol %) 50/9/38/3 for Cmpnd 49, 50/10/38.5/1.5 for the others
# [7] = Expt. 1, composition ratio (mol %) 50/9/38/3 for Cmpnd 49, 50/10/38.5/1.5 for the others
# [8] = Expt. 2, composition ratio (mol %) 50/9/39.5/3 for Cmpnd 49, 50/9/39.5/1.5 for the others
# [9] = Expt. 10, composition ratio (mol %) 50/9/38/3 for Cmpnd 49, 50/10/38.5/1.5 for the others
# [10] = Expt. 7, composition ratio (mol %) 50/9/38/3 for Cmpnd 49, 50/10/38.5/1.5 for the others
Compound,Serum TTR % TSS ([1]; dose 0.03 mpk),Serum TTR % TSS ([1]; dose 0.1 mpk),pKa [2],"Num Ave Size (nm) [3, 7]","PDI [3, 7]","Z-Ave Size (nm) [3, 7]","Encapsulation (%) [4, 7]",further results
"CCCCC/C=C\C/C=C\CCCCCCCC(=O)OCC(COC(=O)CCCCCCC/C=C\C/C=C\CCCCC)OC(=O)CCC(CCCCC)OC(=O)NCCN(C)CC (centres unmarked) [Compound 69, 2-((4-(((2-(ethyl(methyl)amino)ethyl)carbamoyl)oxy)nonanoyl)oxy)propane-1,3-diyl (9Z,9′Z,12Z,12′Z)-bis(octadeca-9,12-dienoate)]",54% TSS,12% TSS,6.44,–,–,–,–,"Num Ave Size (nm) [3, 5]: 88.76 nm; PDI [3, 5]: 0.017; Z-Ave Size (nm) [3, 5]: 108.90 nm; Encapsulation (%) [4, 5]: 96%"
"CCCCC/C=C\C/C=C\CCCCCCCC(=O)OCC(COC(=O)CCCCCCC/C=C\C/C=C\CCCCC)COC(=O)C(C)(C)C(CCCCCC)OC(=O)NCCN1CCCC1 (centres unmarked) [Compound 100, 2-(((2,2-dimethyl-3-(((2-(pyrrolidin-1-yl)ethyl)carbamoyl)oxy)nonanoyl)oxy)methyl)propane-1,3-diyl (9Z,9′Z,12Z,12′Z)-bis(octadeca-9,12-dienoate)]",46.68 % TSS,–,6.6,–,–,–,–,"Num Ave Size (nm) [3, 6]: 83 nm; PDI [3, 6]: 0.05; Z-Ave Size (nm) [3, 6]: 102 nm; Encapsulation (%) [4, 6]: 99%"
"CCCCC/C=C\C/C=C\CCCCCCCC(=O)OCC(COC(=O)CCCCCCCC(=O)OCCCCCCCCCCC)OC(=O)CC(CCCCCCCC)OC(=O)NCCN(C)CC (centres unmarked) [Compound 62, 1-(3-methyl-13-((((9Z,12Z)-octadeca-9,12-dienoyl)oxy)methyl)-9-octyl-7,11-dioxo-8,12-dioxa-3,6-diazatetradecan-14-yl) 9-undecyl nonanedioate]",–,57.89 % TSS,6.32,87.26 nm,0.04,106.40 nm,97%,–
"CCCCC/C=C\C/C=C\CCCCCCCC(=O)OCC(COC(=O)CCCCCCC/C=C\C/C=C\CCCCC)OC(=O)CCC(CCCC)OC(=O)OCCCN1CCCC1 (centres unmarked) [Compound 68, 2-((4-(((3-(pyrrolidin-1-yl)propoxy)carbonyl)oxy)octanoyl)oxy)propane-1,3-diyl (9Z,9′Z,12Z,12′Z)-bis(octadeca-9,12-dienoate)]",68.58 % TSS,–,6.32,–,–,–,–,"Num Ave Size (nm) [3, 8]: 100.4 nm; PDI [3, 8]: 0.051; Z-Ave Size (nm) [3, 8]: 122.30 nm; Encapsulation (%) [4, 8]: 99%"
"CCCCC/C=C\C/C=C\CCCCCCCC(=O)OCC(COC(=O)CCCCCCC/C=C\C/C=C\CCCCC)OC(=O)CCC(CC/C=C\CCCCC)OC(=O)NCCN1CCCC1 (centres unmarked) [Compound 108, 2-(((Z)-4-(((2-(pyrrolidin-1-yl)ethyl)carbamoyl)oxy)tridec-7-enoyl)oxy)propane-1,3-diyl (9Z,9′Z,12Z,12′Z)-bis(octadeca-9,12-dienoate)]",57.12 % TSS,–,6.52,–,–,–,–,"Num Ave Size (nm) [3, 6]: 73 nm; PDI [3, 6]: 0.03; Z-Ave Size (nm) [3, 6]: 89 nm; Encapsulation (%) [4, 6]: 99%"
"CCCCC/C=C\C/C=C\CCCCCCCC(=O)OCC(COC(=O)CCCCCCC/C=C\C/C=C\CCCCC)OC(=O)CCC(CCCCCCCC)OC(=O)OCCCCN(CC)CC (centres unmarked) [Compound 95, 2-((4-(((4-(diethylamino)butoxy)carbonyl)oxy)dodecanoyl)oxy)propane-1,3-diyl (9Z,9′Z,12Z,12′Z)-bis(octadeca-9,12-dienoate)]",77% TSS,–,6.15,–,–,–,–,"Num Ave Size (nm) [3, 9]: 88 nm; PDI [3, 9]: 0.01; Z-Ave Size (nm) [3, 9]: 105 nm; Encapsulation (%) [4, 9]: 98%"
"CCCCC/C=C\C/C=C\CCCCCCCC(=O)OCC(COC(=O)CCCCCCC/C=C\C/C=C\CCCCC)OC(=O)CCC(CCCCC)OC(=O)OCCCN1CCCC1 (centres unmarked) [Compound 71, 2-((4-(((3-(pyrrolidin-1-yl)propoxy)carbonyl)oxy)nonanoyl)oxy)propane-1,3-diyl (9Z,9′Z,12Z,12′Z)-bis(octadeca-9,12-dienoate)]",47.425 % TSS,15.055 % TSS,6.28,–,–,–,–,"Num Ave Size (nm) [3, 10]: 86.63 nm; PDI [3, 10]: 0.035; Z-Ave Size (nm) [3, 10]: 104.5 nm; Encapsulation (%) [4, 10]: 97%"
"CCCCC/C=C\C/C=C\CCCCCCCC(=O)OCC(COC(=O)CCCCCCC/C=C\C/C=C\CCCCC)COC(=O)CC(CCCCCCCC)OC(=O)NCCN(C)CC (centres unmarked) [Compound 53, 2-(11-methyl-5-octyl-3,7-dioxo-2,6-dioxa-8,11-diazatridecyl)propane-1,3-diyl (9Z,9′Z,12Z,12′Z)-bis(octadeca-9,12-dienoate)]",–,13.97 % TSS,6.29,75.76 nm,0.05,92.99 nm,99%,–
"CCCCC/C=C\C/C=C\CCCCCCCC(=O)OCC(COC(=O)CCCCCCCC(=O)OCCCCCCCCCCC)OC(=O)CCC(CCCCCCCC)OC(=O)NCCN(C)CC (centres unmarked) [Compound 63, 1-(3-methyl-14-((((9Z,12Z)-octadeca-9,12-dienoyl)oxy)methyl)-9-octyl-7,12-dioxo-8,13-dioxa-3,6-diazapentadecan-15-yl) 9-undecyl nonanedioate]",–,83.86 % TSS,6.32,82.18 nm,0.04,106.00 nm,98%,–
